Assay results reported in patent EP0094815B1, “Oligopeptide prodrugs” (SMITHKLINE BECKMAN CORPORATION, priority 1982, dated 1983).

Columns and labels:
[1] = system: C. albicans; assay: Minimum inhibitory concentration, two-fold broth dilution (Method B); format: cell-based, Candida albicans; settings: C. albicans in Method B; text summary of MIC table (table is an image)
Method: (§1) The minimum inhibitory concentration of the test compound was determined by two-fold broth dilution tests in yeast carbon base medium, containing 200 pg/ml of sodium glutamate. The compounds were diluted from […] to 0.25 pg/ml and the test medium was inoculated with a suspension of C. albicans grown in the same medium for 15 hours at 37°. The final inoculum sizes in the tests were approximately 10^4 cfu/ml and 10^3 cfu/ml. The tubes were incubated at 37° for 24 and 48 hours and observed for inhibition.

[2] = system: Leucine Aminopeptidase; assay: Enzyme catalyzed warhead release (Ellman colorimetric assay); format: biochemical, hog; settings: pH 7.0; linear rate over the observation period (5 min)
Method: In each case upon addition of the enzyme, Leucine Aminopeptidase, the warhead was released. The release was maintained at a linear rate over the observation period (5 min). […] These observations are consistent with literature reports of the optimal pH necessary for the efficacy of this enzyme. These observations were obtained by colorimetric assay, which involves the reaction between a free sulfhydryl group and 5,5'-dithio-bis(2-nitrobenzoic acid), the Ellman reagent, to produce a yellow color as follows: [drawing 44] The peptide from Example 4 was dissolved in 4 mM of phosphate buffer solution (pH 7) containing the Ellman reagent at a level of 4 mg/ml to produce a 1 mM solution of the peptide. The resulting mixture was monitored using a spectrophotometer at a wavelength of 412 nm. To 1 ml of this solution was added 100 µg of hog kidney leucine aminopeptidase (Sigma) and the enzymatic hydrolysis was continuously monitored at 412 nm.

[3] = Stability of a-substituted glycine peptides in aqueous buffer (Ellman colorimetric assay); format: physicochemical; settings: for half-life: 0.2 M phosphate buffer (pH 7.0), no enzyme, read-out: stable (t)
[4] = system: representative fungal and bacterial organisms; assay: Biological screen of the utility (antimicrobial) example; format: cell-based; settings: product of first deblocking, later found not completely deblocked
Method: A prototypal compound, L-alanyl-2-(5-fluorouracil-2-yl)-L-glycine, was evaluated against representative fungal and bacterial organisms.
Candida albicans strains B―311 and BC 759, obtained from Smith Kline and French Laboratory Culture Collection were grown in a trypticase soy broth at 28° for 7 hours. The seeded plates, with this medium containing 1.5% agar, were prepared by inoculating 1 ml of the inoculum in 1 I of yeast-carbon base medium, containing 200 µg/ml of lysine or glutamate as a sole source of nitrogen.
as §1
A method similar to A above but using E. coli was used which employs a M-9 medium (basic salts with ammonium ion as the nitrogen source and glucose as the carbon source).

Row | Structure (SMILES) | antifungal activity [1] | half-life [3] | also measured
1 | C[C@H](N)C(=O)NC(C(=O)O)n1cc(F)c(=O)[nH]c1=O (mixture of isomers) [L-, DL, L-alanyl-2-(5-fluorouracil-1-yl)-D,L-glycine] | antifungal activity | – | –
2 | C[C@H](N)C(=O)NC(SCCNc1cc(C(=O)O)nc(C(=O)O)c1)C(=O)O (stereo partly shown) [Example 4] | – | > 83.3 h | warhead release upon addition of the enzyme [2]: released; non-enzymatic warhead release ([3]; pH 7.5): no noticeable increases
3 | C[C@H](N)C(=O)NC(NNS(=O)(=O)c1cc(C(=O)O)cc(C(=O)O)c1)C(=O)O (stereo partly drawn) [Example 12, L-alanyl-2-(3,5-dicarboxy-phenylsulfohydrazino)-D,L-glycine] | – | – | activity in the biological screen [4]: not active
4 | C[C@H](N)C(=O)NC(C(=O)O)n1cc(F)c(=O)[nH]c1=O (stereo partly drawn) [L-L, L-alanyl-2-(5-fluorouracil-2-yl)-L-glycine] | antifungal activity | – | –
5 | C[C@H](N)C(=O)NC(Sc1ccccc1)C(=O)O (stereo partly drawn) [Example 13, L-alanyl-2-(thiophenyl)-D,L-glycine] | – | > 83.3 h | –
